Measurements as given in paper PMC4645160, “Targeting kinases with anilinopyrimidines: discovery of N-phenyl-N’-[4-(pyrimidin-4-ylamino)phenyl]urea derivatives as selective inhibitors of class III receptor tyrosine kinase subfamily” (Scientific Reports, 2015).

Assays:
A549 cells = test: MTT cytotoxicity assay, A549 lung cancer cells; format: cell-based, human; conditions: for IC50: Homo sapiens, A549, 72 h, MTT test, 72 h of drug treatment, read-out: A549 IC50 (μM) ± SD; for Potency relative to SU (A549): ratio between IC50 of sunitinib and IC50 of tested compound
Method: (§1) Compounds active against at least one kinase among EGFR and class III RTKs were evaluated for their cytotoxic properties against two different human cancer cell lines, namely non small cells A549 lung cancer cells (sensitive to EGFR inhibitors)[46] and pancreatic BxPC3 adenocarcinoma (sensitive to both PDGFRβ and EGFR inhibitors)[47][48] cells. […] The results, expressed as IC50 values (μM) calculated from the dose-survival curves obtained after 72 h of drug treatment from the MTT test, are reported in Table 1.
(§2) All compounds, except derivative 27, were dissolved in DMSO just before the experiment, and a calculated amount of drug solution was added to the cell growth medium to a final solvent concentration of 0.5%, which had no discernible effect on cell killing. Compound 27 was dissolved in a 0.9% NaCl solution just before the experiment.
(§3) Human lung (A549), breast (MCF-7), pancreas (BxPC3), and colon (LoVo) carcinoma cell lines along with melanoma (A375) were obtained from American Type Culture Collection (ATCC, Rockville, MD). Human non-tumor embryonic kidney HEK293 cells were obtained from European Collection of Cell Cultures (ECACC, Salisbury, UK). Human cervical carcinoma A431cells were kindly provided by Prof. F. Zunino (Division of Experimental Oncology B, Istituto Nazionale dei Tumori, Milan, Italy). Human ovarian cancer 2008 cells were kindly provided by Prof. G. Marverti (Dept. of Biomedical Science of Modena University, Italy). Cell lines were maintained in the logarithmic phase at 37 °C in a 5% carbon dioxide atmosphere using the following culture media containing 10% fetal calf serum (Euroclone, Milan, Italy), antibiotics (50 units ∙ mL^−1 penicillin and 50 μg ∙ mL^−1 streptomycin) and 2 mM l-glutamine: i) RPMI-1640 medium (Euroclone) for MCF-7, A431, BxPC3 and 2008 cells; ii) F-12 HAM’S (Sigma Chemical Co.) for A549 and LoVo cells; iii) D-MEM medium (Euroclone) for HEK293 cells.
(§4) The growth inhibitory effect towards human cell lines was evaluated by means of MTT (tetrazolium salt reduction) assay. Briefly, 3–8 ∙ 10^3 cells/well, dependent upon the growth characteristics of the cell line, were seeded in 96-well microplates in growth medium (100 μL) and then incubated at 37 °C in a 5% carbon dioxide atmosphere. After 24 h, the medium was removed and replaced with a fresh one containing the test compound at the appropriate concentration. Triplicate cultures were established for each treatment. After 72 h, each well was treated with 10 μL of a 5 mg ∙ mL-1 MTT (3-(4,5-dimethylthiazol-2-yl)-2,5-diphenyltetrazolium bromide) saline solution, and after 5 h additional incubation, 100 μL of a sodium dodecylsulfate (SDS) solution in HCl 0.01 M were added. After overnight incubation, the inhibition of cell growth induced by the tested complexes was detected by measuring the absorbance of each well at 570 nm using a Bio-Rad 680 microplate reader (Bio-Rad, Hercules, CA). Mean absorbance for each drug dose was expressed as a percentage of the control untreated well absorbance and plotted vs drug concentration.

BxPC3 cells = test: MTT cytotoxicity assay, BxPC3 pancreatic adenocarcinoma cells; format: cell-based, human; conditions: for IC50: Homo sapiens, BXPC-3, MTT test, 72 h of drug treatment, read-out: BxPC3 IC50 (μM) ± SD; for Potency relative to SU (BxPC3): ratio between IC50 of sunitinib and IC50 of tested compound
Method: as §1, §2, §3, §4

panel of 48 kinases = test: KinomeScan primary screening (POC) at 10 μM; format: binding, human; conditions: POC values
Source text: Synthesized compounds were screened against a panel of 48 kinases selected within the ScanEDGE subset of DiscoverX (http://www.discoverx.com/services/drug-discovery-development-services/kinase-profiling/kinomescan/scanedge). The ScanEDGE includes 97 kinases and is an economical approach to assess compounds selectivity throughout the human kinome. All the wt-TKs along with some relevant mutants of Abl1 (T315I) and of EGFR (L858R and L858R/T790M) were chosen. The remaining 18 targets (3 Tyrosine Kinases-Like, TKLs; 15 Serine-Threonine Kinases, STKs) were selected among the remaining kinases in the ScanEDGE subset on the basis of their well established role in cancer (see Fig. S2 for a graphical representation of the selected kinases with reference to the kinome tree. Some references highlighting the role of each kinase in cancer are also reported in Table S3).
The compounds were evaluated using the KinomeScan™ platform (http://www.discoverx.com/services/drug-discovery-development-services/kinase-profiling/kinomescan), that measures the ability of the test compound to disrupt the complex between a high affinity ATP-mimic probe immobilized on a solid support and the kinase of interest. The KinomeScan is a very helpful technology for the fast and reliable screening of a number of compounds against a wide and customizable panel of kinases. Besides, it is not based on the use of hazardous radioactive ^32P-ATP and has a very low rate of false positive (<1%)[44]. The screening platform outputs a “Percent of Control” (POC) value, statistically correlated to the dissociation constant (Kd) value (http://www.discoverx.com/tools-resources/leadhunter-study-reports-data-analysis), for each pair of kinase/ligand. The POC is calculated as reported in equation (1):
Where: test compound signal = amount of kinase still binding the probe after treatment with test compound; negative control signal = amount of kinase still binding the probe after treatment with DMSO (100% control); positive control signal = amount of kinase still binding the probe after treatment with control compound (0% control).
The compounds were tested at high concentration (10 μM), in order to highlight not only the main target but also the off-targets. The results of the preliminary screening are reported as heat map (Fig. 4; see also Table S4 for all the measured values), in which the compounds are grouped on the basis of the 6 or 5 substituent at the pyrimidine ring.

SMILES	melting point [°C]	IC50 (A549 cells) [µM]	Potency relative to SU (A549) (A549 cells)	IC50 (BxPC3 cells) [µM]	Potency relative to SU (BxPC3) (BxPC3 cells)	Selectivity profile (kinases targeted) in primary screening (panel of 48 kinases)
Nc1ccc(Nc2cc(Nc3ccccc3)ncn2)cc1 [Compound 6]	–	34 ± 4.98	0.18	16.1 ± 4.85	0.31	–
Cc1cccc(Nc2cc(Nc3cccc(C)c3)ncn2)c1 [Compound 8]	–	> 50	<0.12	> 50	<0.10	–
Oc1ccc(Nc2cc(Nc3ccc(O)cc3)ncn2)cc1 [Compound 12]	–	> 50	<0.12	> 50	<0.10	EGFR; calss III RTK; AXL; TRKA; JAK3
Cc1cccc(Nc2ncncc2-c2ccccc2)c1 [Compound 20]	–	–	–	–	–	Inactive
Nc1ccc(Nc2ncncc2-c2ccccc2)cc1 [Compound 25]	–	26.1 ± 4.55	0.24	27.9 ± 5.28	0.18	–
O=C(Nc1ccccc1)Nc1ccc(Nc2ncncc2-c2ccccc2)cc1 [Compound 26]	–	28.9 ± 5.86	0.21	30.9 ± 4.18	0.16	class III RTK

Now from value to compound, other results behind:

melting point [°C]	SMILES	IC50 (A549 cells) [µM]	Potency relative to SU (A549) (A549 cells)	IC50 (BxPC3 cells) [µM]	Potency relative to SU (BxPC3) (BxPC3 cells)	Selectivity profile (kinases targeted) in primary screening (panel of 48 kinases)
254	Cc1cccc(Nc2cc(Nc3ccccc3)ncn2)c1 [Compound 1]	8.94 ± 2.18	0.70	6.43 ± 1.78	0.79	EGFR selective
267	c1ccc(Nc2cc(Nc3cccc(-c4ccccc4)c3)ncn2)cc1 [Compound 2]	26.5 ± 3.85	0.23	17.9 ± 2.46	0.28	–
253	Oc1cccc(Nc2cc(Nc3ccccc3)ncn2)c1 [Compound 3]	28.2 ± 5.46	0.22	8.19 ± 2.18	0.62	–
265	Cc1ccc(Nc2cc(Nc3ccccc3)ncn2)cc1 [Compound 4]	14.2 ± 2.75	0.44	23.2 ± 4.29	0.22	EGFR selective
286	Oc1ccc(Nc2cc(Nc3ccccc3)ncn2)cc1 [Compound 5]	16.3 ± 4.24	0.38	6.51 ± 1.07	0.78	EGFR; class III RTK; AXL
243	Brc1cccc(Nc2cc(Nc3cccc(Br)c3)ncn2)c1 [Compound 9]	> 50	<0.12	> 50	<0.10	–
272	Cc1cccc(Nc2cc(-c3ccccc3)ncn2)c1 [Compound 13]	–	–	–	–	Inactive
118	Oc1ccc(Nc2ncncc2-c2ccccc2)cc1 [Compound 24]	12.1 ± 1.99	0.51	16.4 ± 4.22	0.31	–
